“Also recorded” adds a separate entry of the source.
Assays:
[1] = tested on: mosquito salivary gland extract-induced scratching behavior; conditions: mouse; cited from earlier work
[2] = tested on: primary afferent; conditions: sensitized mouse; cited from earlier work
[3] = tested on: mice; conditions: animals such as mice; cited from earlier work
[4] = tested on: granzyme A-induced scratching behavior; assay: Suppression of scratching behavior induced by intradermal injection of granzyme A; format: in vivo, mouse; conditions: naltrexone injected 15 minutes before granzyme A
Description: (§1) On the day before the experiment, the hair on the rostral back of each mouse was removed. On the day of the experiment, the mouse was left in an observation cage for 1 hour to familiarize the mouse with the environment. After the familiarization, granzyme A (0.1 to 100 μg/site) or ESGM (10 μg/50 μL) was intradermally injected to the rostral back of the mouse. The mouse was returned to the observation cage (13×9×30 cm) immediately after the administration, and the behavior with no observer present was filmed with an 8-mm video camera. A protease inhibitor in an amount of 0.05 mL per 10 g of body weight of the mouse was injected into the tail vein 30 seconds before the administration of ESGM. Naltrexone in an amount of 0.1 mL per 10 g of body weight of the mouse was intradermally injected 15 minutes before the administration of granzyme A. The behavior after the injection was observed by playing back the video. Scratching behavior was determined by counting the number of times there was scratching of the injection portion and nearly areas with the hind paws. A mouse usually scratches several times for about 1 second, and a series of this behavior was determined as one instance of scratching behavior.

[5] = tested on: normal mice; assay: Behavior experiment: scratching behavior after intradermal injection of granzyme A; format: in vivo, mouse
Description: as §1

Molecule: CN1CCCC(n2nc(Cc3ccc(Cl)cc3)c3ccccc3c2=O)CC1 (centres unmarked) [azelastine]
- Effect on scratching behavior increased by repetitive injections of mosquito salivary gland extract [1]: is suppressed
- Effect on enhanced activity of primary afferent after mosquito salivary gland extract injection [2]: suppressed

Molecule: NCCc1c[nH]cn1 [histamine]
- Scratching behavior caused by histamine [3]: does not cause scratching behavior

Molecule: O=C1CC[C@@]2(O)[C@H]3Cc4ccc(O)c5c4[C@@]2(CCN3CC2CC2)[C@H]1O5 [naltrexone]
- Effect on scratching behavior induced by intradermal injection of granzyme A [4]: suppressed

Molecule: CC(C)(C)c1ccc(C(O)CCCN2CCC(C(O)(c3ccccc3)c3ccccc3)CC2)cc1 (centres unmarked) [terfenadine]
- Effect on scratching behavior increased by repetitive injections of mosquito salivary gland extract [1]: is not suppressed
- Effect on enhanced activity of primary afferent after mosquito salivary gland extract injection [2]: not suppressed

B1: granzyme A: serine protease expressed in CD4+ T cells; intradermally injected into mice to induce scratching (protein, listed as Homo sapiens)
chain: MRNSYRFLASSLSVVVSLLLIPEDVCEKIIGGNEVTPHSRPYMVLLSLDRKTICAGALIAKDWVLTAAHCNLNKRSQVILGAHSITREEPTKQIMLVKKEFPYPCYDPATREGDLKLLQLTEKAKINKYVTILHLPKKGDDVKPGTMCQVAGWGRTHNSASWSDTLREVNITIIDRKVCNDRNHYNFNPVIGMNMVCAGSLRGGRDSCNGDSGSPLLCEGVFRGVTSFGLENKCGDPRGPGVYILLSKKHLNWIIMTIKGAV
- Dose giving peak scratching behavior ([5]; intradermal injection): 10 μg/site
- Scratching behavior induced by intradermal injection ([5]; intradermal injection to rostral back, 0.1 to 100 μg/site): an itching reaction occurred; also recorded: induced; also recorded: induction of scratching behavior
